Experimental data: patent US4720546A (priority 1984, dated 1988)
≈ marks a conversion by molar mass, not a printed value.

Columns and labels:
Candida albicans = experiment: fungistatic activity test in Casiton agar test tubes (MIC), Candida albicans; assay type: cell-based; details: 48 h, read-out: MIC values, C. albicans
Histoplasma capsulatum = experiment: microbe, parasite or virus in culture; assay type: cell-based; details: 168 h, read-out: MIC values, H. capsulatum
in vivo = details: mouse, po

Structure (SMILES) | MIC (Candida albicans) [µg/mL] | MIC (Histoplasma capsulatum) [µg/mL] | LD50 (in vivo) [mg/kg]
Clc1ccc([C@@]2(Cn3ccnc3)OC[C@H](COc3ccc(N4CCSCC4)cc3)O2)c(Cl)c1 (relative stereo) [CH CH 0, cis-4-[4-[[2-(2,4-dichlorophenyl)-2-[(imidazol-1-yl)methyl]-1,3-dioxolan-4-yl]methoxy]phenyl]tetrahydro-4H-1,4-thiazine] | 1 to 100 (≈ 1.97 to 197 µM) | 10 (≈ 19.7 µM) | ~1000
O=S1(=O)CCN(c2ccc(OC[C@H]3CO[C@](Cn4cncn4)(c4ccc(Cl)cc4Cl)O3)cc2)CC1 (relative stereo) [CH N 2, cis-4-[4-[[2-(2,4-dichlorophenyl)-2-[(1H-1,2,4-triazol-1-yl)methyl]-1,3-dioxolan-4-yl]methoxy]phenyl]-tetrahydro-4H-1,4-thiazine 1,1-dioxide] | 0.1 to 10 (≈ 0.185 to 18.5 µM) | 1 (≈ 1.85 µM) | ≥ 5000
O=S1(=O)CCN(c2ccc(OC[C@H]3CO[C@](Cn4ccnc4)(c4ccc(Cl)cc4Cl)O3)cc2)CC1 (relative stereo) [CH CH 2, cis-4-[4-[[2-(2,4-dichlorophenyl)-2-[(imidazol-1-yl)methyl]-1,3-dioxolan-4-yl]methoxy]phenyl]-tetrahydro-4H-1,4-thiazine 1,1-dioxide] | 0.1 to 1 (≈ 0.186 to 1.86 µM) | 1 (≈ 1.86 µM) | ≥ 4000
[O-][S+]1CCN(c2ccc(OC[C@H]3CO[C@](Cn4cncn4)(c4ccc(Cl)cc4Cl)O3)cc2)CC1 (relative stereo) [CH N 1, cis-4-[4-[[2-(2,4-dichlorophenyl)-2-[(1H-1,2,4-triazol-1-yl)methyl]-1,3-dioxolan-4-yl]methoxy]phenyl]-tetrahydro-4H-1,4-thiazine 1-oxide] | 1 to 100 (≈ 1.91 to 191 µM) | 100 (≈ 191 µM) | ~4000
Clc1ccc([C@@]2(Cn3cncn3)OC[C@H](COc3ccc(N4CCSCC4)cc3)O2)c(Cl)c1 (relative stereo) [CH N 0, cis-4-[4-[[2-(2,4-dichlorophenyl)-2-[(1H-1,2,4-triazol-1-yl)methyl]-1,3-dioxolan-4-yl]methoxy]phenyl]-tetrahydro-4H-1,4-thiazine] | 0.1 to 1 (≈ 0.197 to 1.97 µM) | 10 (≈ 19.7 µM) | ≥ 5000
O=S1(=O)CCN(c2ccc(OC[C@H]3CO[C@](Cn4cnnc4)(c4ccc(Cl)cc4Cl)O3)cc2)CC1 (relative stereo) [N CH 2, cis-4-[4-[[2-(2,4-dichlorophenyl)-2-[(4H-1,2,4-triazol-4-yl)methyl]-1,3-dioxolan--4-yl]methoxy]phenyl]-tetrahydro-4H-1,4-thiazine 1,1-dioxide] | 0.1 to 10 (≈ 0.185 to 18.5 µM) | > 100 | ≥ 4000
[O-][S+]1CCN(c2ccc(OC[C@H]3CO[C@](Cn4ccnc4)(c4ccc(Cl)cc4Cl)O3)cc2)CC1 (relative stereo) [CH CH 1, cis-4-[4-[[2-(2,4-dichlorophenyl)-2-[(imidazol-1-yl)methyl]-1,3-dioxolan-4-yl]methoxy]-phenyl]-tetrahydro-4H-1,4-thiazine 1-oxide] | 1 to 100 (≈ 1.91 to 191 µM) | 10 (≈ 19.1 µM) | ~1000
